Test system: AmGSTL1
Experiment: Effect of inhibitors on activity of recombinant black-grass AmGSTL (thiol transferase)
Assay type: biochemical, black-grass (Alopecurus myosuroides)
Conditions: 0.1 mM inhibitor; recombinant enzyme

- inhibition of AmGSTL1 activity: totally inhibited
SMILES: O=C1O/C(=C/Br)CCC1c1cccc2ccccc12 (stereo not shown) [BEL, Bromoenol lactone]

Reference: patent publication US20100184601A1, “Method and Means Relating to Multiple Herbicide Resistance in Plants” (University of Durham, priority 2007, published 2010)
